Results published in patent US6683073B1, “Pyrimidine linked pyrrolo[2,1-c][1,4]benzodiazepines as potential antitumour agents” (Council of Scientific and Industrial Research, priority 2003, dated 2004).

Legend:
[1] = system: CNS cancer cell lines; test: NCI in vitro cytotoxicity screen (SRB), CNS panel; format: cell-based, human; conditions: average of six to eight different cancer cell lines
Description: (§1) Biological Activity: In vitro biological activity studies were carried out at National Cancer Institute (USA).
(§2) Cytotoxicity: Compounds VIa and VIb were evaluated in vitro against sixty human tumour cells derived from nine cancer types (leukemia, non-small-cell lung, colon, CNS, melanoma, ovarian, prostate, and breast cancer). For each compound, dose response curves for each cell line were measured at a minimum of five concentrations at 10 fold dilutions. A protocol of 48 h continuous drug exposure was used and a sulforhodamine B (SRB) protein assay was used to estimate cell viability or growth. The concentration causing 50% cell growth inhibition (GI50), total cell growth inhibition (TGI 0% growth) and 50% cell death (LC50, −50% growth) compared with the control was calculated.
(§3) Each cancer type represents the average of six to eight different cancer cell lines.

[2] = system: Renal cancer cell lines; test: NCI in vitro cytotoxicity screen (SRB), renal panel; format: cell-based, human; conditions: average of six to eight different cancer cell lines
Description: as §1, §2, §3

[3] = system: sixty human tumour cells derived from nine cancer types; test: NCI in vitro cytotoxicity screen, 48 h drug exposure, sulforhodamine B (SRB) protein assay; format: cell-based; conditions: for Log10 GI50 mean graph midpoint (MG_MID): concentration causing 50% cell growth inhibition; for Log10 GI50 mean graph midpoint (MG_MID) / Log10 TGI mean graph midpoint (MG_MID): mean over human tumour cell lines, 48 h exposure; for Log10 TGI mean graph midpoint (MG_MID): total cell growth inhibition (0% growth)
Description: as §1, §2

[4] = system: Ovarian cancer cell lines; test: NCI in vitro cytotoxicity screen (SRB), ovarian panel; format: cell-based, human; conditions: average of six to eight different cancer cell lines
Description: as §1, §2, §3

[5] = system: Breast cancer cell lines; test: NCI in vitro cytotoxicity screen (SRB), breast panel; format: cell-based, human; conditions: average of six to eight different cancer cell lines
Description: as §1, §2, §3

[6] = system: non-small-cell lung cancer cell lines; test: NCI in vitro cytotoxicity screen (SRB), non-small-cell lung panel; format: cell-based, human; conditions: average of six to eight different cancer cell lines
Description: as §1, §2, §3

[7] = system: Melanoma cell lines; test: NCI in vitro cytotoxicity screen (SRB), melanoma panel; format: cell-based, human; conditions: average of six to eight different cancer cell lines
Description: as §1, §2, §3

[8] = system: Prostate cancer cell lines; test: NCI in vitro cytotoxicity screen (SRB), prostate panel; format: cell-based, human; conditions: average of six to eight different cancer cell lines
Description: as §1, §2, §3

[9] = system: Leukaemia cell lines; test: NCI in vitro cytotoxicity screen (SRB), leukaemia panel; format: cell-based, human; conditions: average of six to eight different cancer cell lines
Description: as §1, §2, §3

[10] = system: Colon cancer cell lines; test: NCI in vitro cytotoxicity screen (SRB), colon panel; format: cell-based, human; conditions: average of six to eight different cancer cell lines
Description: as §1, §2, §3

## COc1cc2c(cc1OCCCOc1cc(-c3ccc(F)cc3)nc(C)n1)N=C[C@@H]1CCCN1C2=O [VIa, 7-methoxy-8-[6′-(4″-fluorophenyl)-2′-methylpyrimidine-4′-yloxy]propoxy-(11aS)-1,2,3,11a-tetrahydro-5H-pyrrolo[2,1,c][1,4]benzodiazepin-5-one]
[1]
  in vitro cytotoxicity, log10 value (quantity not given): −4.10
[2]
  in vitro cytotoxicity, log10 value (quantity not given): −4.18
[3]
  Log10 GI50 mean graph midpoint (MG_MID): −4.73
  Log10 TGI mean graph midpoint (MG_MID): −4.34
[4]
  in vitro cytotoxicity, log10 value (quantity not given): −4.05
[5]
  in vitro cytotoxicity, log10 value (quantity not given): −4.09
[6]
  in vitro cytotoxicity, log10 value (quantity not given): −4.07
[7]
  in vitro cytotoxicity, log10 value (quantity not given): −4.14
[8]
  in vitro cytotoxicity, log10 value (quantity not given): −4.00
[9]
  in vitro cytotoxicity, log10 value (quantity not given): −4.03
[10]
  in vitro cytotoxicity, log10 value (quantity not given): −4.12

## COc1cc2c(cc1OCCCCOc1cc(-c3ccc(F)cc3)nc(C)n1)N=C[C@@H]1CCCN1C2=O [VIb, 7-methoxy-8-[6′-(4″-fluorophenyl)-2′-methylpyrimidine-4′-yloxy]butoxy-(11aS)-1,2,3,11a-tetrahydro-5H-pyrrolo[2,1,c][1,4]benzodiazepin-5-one]
[1]
  in vitro cytotoxicity, log10 value (quantity not given): −4.40
[2]
  in vitro cytotoxicity, log10 value (quantity not given): −4.39
[3]
  Log10 GI50 mean graph midpoint (MG_MID): −6.41
  Log10 TGI mean graph midpoint (MG_MID): −5.57
[3]; human tumour cell lines
  cytotoxic / anticancer activity, in words: slightly higher activity
[4]
  in vitro cytotoxicity, log10 value (quantity not given): −4.33
[5]
  in vitro cytotoxicity, log10 value (quantity not given): −4.52
[6]
  in vitro cytotoxicity, log10 value (quantity not given): −4.61
[7]
  in vitro cytotoxicity, log10 value (quantity not given): −5.22
[8]
  in vitro cytotoxicity, log10 value (quantity not given): −4.45
[9]
  in vitro cytotoxicity, log10 value (quantity not given): −5.41
[10]
  in vitro cytotoxicity, log10 value (quantity not given): −4.67
